Columns and labels:
[1] = target: Angiotensin-converting enzyme (Homo sapiens, UniProt P12821); experiment: Inhibition of ACE
[2] = Inhibition of ECE
Neprilysin = Neprilysin (Homo sapiens, UniProt P08473); experiment: Inhibition of NEP

Row | IC50 [1] [nM] | IC50 [2] [nM] | IC50 (Neprilysin) [nM] | Compound
1 | 103 | 16500 | 8 | CC(C)CN(C[C@H](O)C(=O)O)C(=O)N[C@@H](Cc1c[nH]c2ccccc12)C(=O)O
2 | 150 |  | 19000 | O=C(O)[C@H](Cc1ccc2ccccc2c1)NC(=O)N(Cc1ccc2c(c1)Cc1ccccc1-2)C[C@H](O)C(=O)O
3 |  |  | 6 | CC(C)CN(CCP(=O)(O)O)C(=O)N[C@@H](Cc1ccc2ccccc2c1)C(=O)O
4 |  |  | 36 | CCC(CC)CN(C[C@H](O)C(=O)O)C(=O)N[C@@H](Cc1ccc2ccccc2c1)C(=O)O
5 | 39 |  |  | O=C1c2ccccc2-c2ccc(CN(C[C@H](O)C(=O)O)C(=O)N[C@@H](Cc3ccc4ccccc4c3)C(=O)O)cc21
6 | 23 |  | 19 | CC(C)CN(C[C@H](O)C(=O)O)C(=O)N[C@@H](Cc1ccc(O)c(O)c1)C(=O)O
7 | 60 |  | 6 | CC(C)CN(C[C@H](O)C(=O)O)C(=O)N[C@@H](Cc1ccc(O)cc1)C(=O)O
8 | 1980 | 600 | 650 | O=C(O)[C@H](Cc1ccc2ccccc2c1)NC(=O)N(CCN1C(=O)c2cccc3cccc(c23)C1=O)C[C@H](O)C(=O)O
9 | 40 |  |  | O=C1c2ccccc2C(=O)c2cc(CN(C[C@H](O)C(=O)O)C(=O)N[C@@H](Cc3ccc4ccccc4c3)C(=O)O)ccc21
10 | 191 |  | 5 | CC(C)(C)CN(C[C@H](O)C(=O)O)C(=O)N[C@@H](Cc1ccc2ccccc2c1)C(=O)O
11 | 35 | 3490 | 10 | CC(C)CN(C[C@H](O)C(=O)O)C(=O)N[C@@H](Cc1ccc(-c2ccccc2)cc1)C(=O)O
12 | 110 |  | 9 | CC(C)CN(C[C@H](O)C(=O)O)C(=O)N[C@@H](Cc1cccc2ccccc12)C(=O)O
13 | 29 |  | 2 | CC(C)CN(CP(=O)(O)O)C(=O)N[C@@H](Cc1ccc2ccccc2c1)C(=O)O

Row | Compound | IC50 [1] [nM] | IC50 [2] [nM] | IC50 (Neprilysin) [nM]
14 | CC(C)CN(C[C@H](O)C(=O)O)C(=O)N[C@@H](Cc1ccc2ccccc2c1)C(=O)O | 52 | 2500 | 4
